Read-outs that look alike come from different tables or passages of the source.
Experiments:
[1] = molecular target: T1, ACAT enzyme (rabbit intestinal mucosa microsome) (Oryctolagus cuniculus, UniProt G1SFD9)
T1 sequence (G1SFD9 1-524): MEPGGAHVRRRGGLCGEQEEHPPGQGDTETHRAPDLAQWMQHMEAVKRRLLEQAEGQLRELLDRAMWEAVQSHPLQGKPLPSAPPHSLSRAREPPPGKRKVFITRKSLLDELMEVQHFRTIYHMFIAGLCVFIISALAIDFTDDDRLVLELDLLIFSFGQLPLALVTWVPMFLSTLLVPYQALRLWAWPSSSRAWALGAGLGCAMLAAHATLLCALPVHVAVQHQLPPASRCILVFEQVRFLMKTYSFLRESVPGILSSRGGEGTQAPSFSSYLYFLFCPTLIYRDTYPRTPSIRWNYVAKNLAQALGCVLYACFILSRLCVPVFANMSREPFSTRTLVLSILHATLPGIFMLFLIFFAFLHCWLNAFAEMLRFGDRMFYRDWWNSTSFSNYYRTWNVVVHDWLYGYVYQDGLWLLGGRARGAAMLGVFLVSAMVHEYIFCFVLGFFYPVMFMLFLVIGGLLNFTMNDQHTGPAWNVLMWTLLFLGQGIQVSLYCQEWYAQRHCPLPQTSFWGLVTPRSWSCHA
Method: Measurement of ACAT enzyme inhibitory activity (measurement of ACAT enzyme inhibitory activity of rabbit intestinal mucosa)
Preparation of a domestic rabbit intestinal mucosa microsome and measurement of the ACAT enzyme activity were conducted by slightly modifying a method established by Salone and Field (see Biochemica et Biophysica, vol. 712, 557 (1982). The domestic rabbit intestinal mucosa was homogenized by using a 40 mM phosphate buffer having a pH value of 7.4 (buffer A) containing 30 mM EDTA, 50 mM KCl and 0.1M sucrose and centrifuged at 10,000×g and a temperature of 4° C. for 30 min to provide a supernatant. The supernatant was further centrifuged at 105,000×g and a temperature of 4° C. for one hr to provide a precipitate. The precipitate was resuspended in the buffer A to provide a microsome fraction.
1% v/v of a dimethylsulfoxide solution of each specimen compound in a predetermined concentration was added to the buffer A containing 43 μM serum albumin and 0.5 mg/ml microsome fraction, and the mixture was heated at 37° C. for 5 min.
Then, 43 μM oleoyl CoA containing [1-^14 C] oleoyl CoA (3.7 kB) was added thereto, the mixture was heated at 37° C. for 10 min, and chloroform/methanol (2/1) containing 10 mg/ml cholesteryl oleate was added thereto to terminate the reaction.
0.111 kB of [3H] cholesteryl oleate and 1N hydrochloric acid were added thereto, and the mixture was stirred. The cholesteryl oleate extracted into the chloroform layer was isolated by a thin-layer chromatography, and the radioactivity was measured as the ACAT activity.

serum cholesterol = assay: Percentage change of serum cholesterol in rats fed a feed enriched with cholesterol and fat; assay type: in vivo, male Wistar rats; conditions: Rattus norvegicus, po, 72 h, Wistar rats, vs control; for change in vivo at 10 mg/kg: 10 mg per kg orally once a day for three days; for change in vivo at 1 mg/kg: 1 mg/kg orally once a day for three days
From the text: Percentage change of serum cholesterol
Male Wistar rats having a weight of 200 g were preliminarily bred for 7 days while they freely ingested a normal feed (CE-2 manufactured by CLEA Japan Inc.).
Thereafter, they were bred for 3 days while they freely ingested a feed enriched with cholesterol and fat (2% cholesterol, 1% cholic acid, 20% casein, 45% fine granulated sugar, 12% coconut oil, 4% KC flock, 1% mixed vitamin, 7% mixed mineral and 8% dried fish powder; a product of CLEA Japan Inc.). […] On the other hand, the excipient alone was administered to the control animals.
8 hr after the last administration, the test animals were fasted. 16 hr after the initiation of the fasting, these test animals were slaughtered. The serum cholesterol level was measured for each animal.
The results were compared with those of the control and are given as percentage serum cholesterol (%) in Table 3.
Percentage change of serum cholesterol (%)={(A-B)/B}×100
wherein A represents the total cholesterol level of serum in the group of rats to which the test compound was administered; and B represents the total cholesterol level of serum in the control group of rats.

| SMILES | IC50 [1] [nM] | other results |
| --- | --- | --- |
| CCCCCCCCCCCCNC(=O)Nc1c(C)ccc2c1OCCC2=O [Ex. 1, 1-Dodecyl-3-(7-methyl-4-chromanon-8-yl)urea] | 73 | – |
| CCCCCCCCCCC(C)(C)C(=O)Nc1c(OC)ccc2c1OCCC2=O [Ex. 2, N-(7-Methoxy-4-chromanon-8-yl)-2,2-dimethyldodecanamide] | 13 | – |
| CCCCCCCCCCCCNC(=O)Nc1c(OC)ccc2c1OCCC2(C)C [Ex. 3] | 340 | – |
| COc1ccc2c(c1NC(=O)NCC1(c3ccccc3)CCCC1)OCCC2(C)C [Ex. 4] | 690 | – |
| Cc1ccc2c(c1NC(=O)NCC1(c3ccccc3)CCCC1)OCCC2=O [Ex. 6] | 530 | – |
| COc1ccc(C2(CNC(=O)Nc3c(C)ccc4c3OCCC4=O)CCCC2)cc1 [Ex. 7] | 500 | – |
| CCCCCCCCCCCCNC(=O)Nc1c(OC)ccc2c(=O)ccoc12 [Ex. 10] | 330 | – |
| CCCCCCCCCCC1(C(=O)Nc2ccc(OC)c3c2OCCC3(C)C)CCCC1 [Ex. 13] | 1200 | – |
| CCCCCCCCCCCCCCCC(=O)Nc1c(C)ccc2c1OCCC2=O [Ex. 18] | 7.8 | – |
| CCCCCCCCCCC(C)(C)C(=O)Nc1c(C)ccc2c1OCCC2=O [Ex. 19] | 210 | change in vivo at 10 mg/kg (serum cholesterol): -27% |
| CCCCCCCCCCC1(C(=O)Nc2c(C)ccc3c2OCCC3=O)CCCC1 [Ex. 20] | 170 | change in vivo at 10 mg/kg (serum cholesterol): -29% |
| Cc1ccc2c(c1NC(=O)C(C)(C)CCCCCc1ccccc1)OCCC2=O [Ex. 25] | 250 | change in vivo at 10 mg/kg (serum cholesterol): -32% |
| Cc1ccc2c(c1NC(=O)C(C)(C)CCCCOCCCC(C)C)OCCC2=O [Ex. 26] | 340 | – |
| Cc1ccc2c(c1NC(=O)C(C)(C)CCCCCCOCC(C)(C)C)OCCC2=O [Ex. 28] | 54 | change in vivo at 10 mg/kg (serum cholesterol): -31% |
| Cc1ccc2c(c1NC(=O)C(C)(C)CCCCCCOCCCC(C)C)OCCC2=O [Ex. 29] | 200 | change in vivo at 10 mg/kg (serum cholesterol): -22% |
| Cc1ccc2c(c1NC(=O)C(C)(C)CCCCOc1ccc(C(C)(C)C)cc1)OCCC2=O [Ex. 30] | 50 | – |
| Cc1ccc2c(c1NC(=O)C(C)(C)CCCCOc1ccc(Cl)cc1)OCCC2=O [Ex. 31] | 510 | – |

| SMILES | IC50 [1] [nM] | other results |
| --- | --- | --- |
| Cc1ccc2c(c1NC(=O)C(C)(C)CCCCCOc1ccc(Cl)cc1)OCCC2=O [Ex. 32] | 470 | change in vivo at 10 mg/kg (serum cholesterol): -33% |
| COc1ccc2c(c1NC(=O)C(C)(C)CCCCCCBr)OCCC2=O [Ex. 37, N-(7-methoxy-4-chromanon-8-yl)-2,2-dimethyl-8-bromooctaneamide] | 25 | – |
| COc1ccc2c(c1NC(=O)C(C)(C)CCCCCCc1ccccc1)OCCC2=O [Ex. 38] | 44 | – |
| COc1ccc2c(c1NC(=O)C(C)(C)CCCCCCOc1ccc(C)cc1)OCCC2=O [Ex. 40] | 43 | – |
| COc1ccc2c(c1NC(=O)C(C)(C)CCCCCOc1ccc(Cl)cc1)OCCC2=O [Ex. 41] | 52 | change in vivo at 1 mg/kg (serum cholesterol): -40% |
| COc1ccc2c(c1NC(=O)C(C)(C)CCCCCCOc1ccc(Cl)cc1)OCCC2=O [Ex. 42] | 64 | change in vivo at 1 mg/kg (serum cholesterol): -51% |
| Cc1cc(C)c2c(c1NC(=O)C(C)(C)CCCCCCOCC(C)C)OCCC2=O [Ex. 43] | 90 | – |
| Cc1cc(C)c2c(c1NC(=O)C(C)(C)CCCCCOc1ccc(Cl)cc1)OCCC2=O [Ex. 44] | 400 | – |
| COc1ccc2c(c1NC(=O)C(C)(C)CCCCCCOc1ccc(Cl)cc1)C(=O)CCO2 [Ex. 45] | 180 | – |
| CCCCCCCCCCC(C)(C)C(=O)Nc1c(Cl)ccc2c1OCCC2=O [Ex. 47] | 150 | – |
| CCCCCCCCCCC(C)(C)C(=O)Nc1c(OCCC)ccc2c1OCCC2=O [Ex. 48] | 14 | – |
| CCCCCCCCCCCCCCC(C)(C)C(=O)Nc1c(OC)ccc2c(=O)ccoc12 [Ex. 49] | – | IC50 ([1]; read-out: ACAT Inhibitory Activity, IC50, rabbit intestinal mucosa microsome, [1-14C] oleoyl CoA, 37° C.): 52 nM |
| CCCCCCCCCCC1(C(=O)Nc2c(OC)ccc3c(=O)ccoc23)CCCC1 [Ex. 50] | 270 | change in vivo at 10 mg/kg (serum cholesterol): -27% |
| COc1ccc2c(=O)ccoc2c1NC(=O)C(C)(C)CCCCOc1ccc(C(C)(C)C)cc1 [Ex. 51] | 190 | – |
| COc1ccc2c(=O)ccoc2c1NC(=O)C(C)(C)CCCCCOc1ccc(Cl)cc1 [Ex. 52] | 160 | change in vivo at 3 mg/kg (serum cholesterol; 3 mg/kg orally once a day for three days): -17% |
| CCCCCCCCCCC(C)(C)C(=O)Nc1c(OC)ccc2c(=O)cc(CC)oc12 [Ex. 54] | 780 | – |
| COc1ccc2c(c1NC(=O)C(C)(C)CCCCCCOc1ccc(N(C)C)cc1)OCCC2=O [Ex. 55, N-(7-Methoxy-4-chromanon-8-yl)-2,2-dimethyl-8-p-dimethylaminophenoxyoctaneamide] | 81 | – |

— US5574061A, “Benzopyran derivative, process for producing the same and pharmaceutical composition containing the same” (priority 1990, dated 1996)
